In brackets after ≈: the same amount, converted by molar mass. Activity calls are given as the source filed them. No cut-off for these calls is given here.
Key:
Cell membrane [1] = experiment: Induction of inner membrane permeabilization in Staphylococcus aureus USA300 assessed as increase in fluorescence intensity at 2 times MIC incubated for 40 mins by SYTOX staining based analysis; type: cell membranes
Staphylococcus aureus [2] = experiment: Synergistic antibacterial activity against Methicillin-resistant Staphylococcus aureus USA300 assessed as fractional inhibitory concentration index in presence of amoxicillin by checkboard method; type: functional
Staphylococcus aureus [3] = experiment: Antibiofilm activity against Methicillin-resistant Staphylococcus aureus USA300 assessed as biofilm eradication at 16 times MIC by crystal violet staining based assay; type: functional
Staphylococcus aureus [4] = experiment: Antibacterial activity against Methicillin-resistant Staphylococcus aureus USA300 assessed as decrease in number of colonies at 0.5 times MIC incubated for 2 to 5 hrs by time-kill kinetics assay; type: functional, organism-based; details: time 2-5 hrs
Staphylococcus aureus [5] = experiment: Antibiofilm activity against Methicillin-resistant Staphylococcus aureus USA300 assessed as biofilm eradication at 32 times MIC by crystal violet staining based assay; type: functional
Cell membrane [6] = experiment: Induction of cell membrane damage in Staphylococcus aureus USA300 assessed as nucleic acid leakage at 4 to 8 times MIC measured for 3 hrs by confocal laser scanning microscopic analysis; type: cell membranes
Staphylococcus aureus [7] = experiment: Bactericidal against methicillin-resistant Staphylococcus aureus ATCC 4330 assessed as inhibition of bacterial growth incubated for 24 hrs by broth dilution method; type: functional
Staphylococcus aureus [8] = experiment: Selectivity index, ratio of MBC for bactericidal against methicillin-resistant Staphylococcus aureus ATCC 3392 to MIC for antibacterial activity against methicillin-resistant Staphylococcus aureus ATCC 3392; type: functional
Staphylococcus aureus [9] = experiment: Synergistic antibacterial activity against Methicillin-resistant Staphylococcus aureus USA300 assessed as fractional inhibitory concentration index in presence of oxacillin by checkboard method; type: functional
Staphylococcus aureus [10] = experiment: Additive antibacterial activity against Methicillin-resistant Staphylococcus aureus USA300 assessed as fractional inhibitory concentration index in presence of doxycycline by checkboard method; type: functional
Cell membrane [11] = experiment: Induction of cell membrane damage in Staphylococcus aureus USA300 assessed as nucleic acid leakage at 1 to 2 times MIC by confocal laser scanning microscopic analysis; type: cell membranes
Staphylococcus aureus [12] = experiment: Synergistic antibacterial activity against Methicillin-resistant Staphylococcus aureus USA300 assessed as oxacillin MIC incubated for 24 hrs by checkboard method (reference value: 2 microg/ml); type: functional
Staphylococcus aureus [13] = experiment: Antibacterial activity against Methicillin-resistant Staphylococcus aureus USA300 infected in mouse skin infection model assessed as reduction in number of bacteria at 10 mg/kg, sc administered every 12 hrs for 3 days; type: functional
Staphylococcus aureus [14] = experiment: Induction of resistance development in methicillin resistant Staphylococcus aureus USA300 assessed as fold increase in MIC measured upto 65 days; type: functional; details: time <= 65.0 day
Staphylococcus aureus [15] = experiment: Antibacterial activity against methicillin-resistant Staphylococcus aureus ATCC 4330 assessed as inhibition of bacterial growth incubated for 24 hrs by broth dilution method; type: functional
Cell membrane [16] = experiment: Induction of cell membrane damage in Staphylococcus aureus USA300 assessed as increase in red fluorescence intensity at 2 times MIC by confocal laser scanning microscopic analysis; type: cell membranes
Staphylococcus aureus [17] = experiment: Antibacterial activity against Methicillin-resistant Staphylococcus aureus USA300 assessed as decrease in number of colonies incubated for 0.5 hrs by time-kill kinetics assay; type: functional, organism-based
Staphylococcus aureus [18] = experiment: Induction of morphological changes in Staphylococcus aureus USA300 assessed as appearance of broken cell surface at 2 to 4 times MIC by SEM analysis; type: functional, organism-based
Staphylococcus aureus [19] = experiment: Induction of resistance development in methicillin resistant Staphylococcus aureus USA300 at 25 to 150 microg/ml measured upto 65 days; type: functional; details: dose 25-150 µg/ml, time <= 65.0 day
Staphylococcus aureus [20] = experiment: Antibiofilm activity against Methicillin-resistant Staphylococcus aureus USA300 assessed as inhibition of biofilm formation at 0.5 times MIC by crystal violet staining based assay; type: functional; set-up: scale not given: the % may be the effect or the level left
Staphylococcus aureus [21] = experiment: Antibacterial activity against Methicillin-resistant Staphylococcus aureus USA300 assessed as inhibition of bacterial growth incubated for 24 hrs by broth dilution method; type: functional
[22] = Toxicity in mouse assessed as change in body weight at 10 mg/kg, sc administered every 12 hrs for 4 days; type: organism-based; details: in vivo, 96 h, time 4 day
Staphylococcus aureus [23] = experiment: Inhibition of staphyloxanthin biosynthesis in Methicillin-resistant Staphylococcus aureus ATCC 3392 assessed as reduction in 4,4-Diaponeurosporene formation at 0.125 to 0.625 times MIC by nanodrop spectrophotometer analysis; type: functional, organism-based
Staphylococcus aureus [24] = experiment: Antibacterial activity against Methicillin-resistant Staphylococcus aureus USA300 assessed as decrease in number of colonies at 1 to 4 times MIC incubated upto 8 hrs by time-kill kinetics assay; type: functional, organism-based
Staphylococcus aureus [25] = experiment: Antibacterial activity against methicillin-resistant Staphylococcus aureus ATCC 3392 assessed as inhibition of bacterial growth incubated for 24 hrs by broth dilution method; type: functional
Cell membrane [26] = experiment: Induction of cell membrane damage in Staphylococcus aureus USA300 assessed as intracellular ATP leakage at 16 times MIC by confocal laser scanning microscopic analysis; type: cell membranes
Escherichia coli = experiment: Antibacterial activity against Escherichia coli ATCC 11775 assessed as inhibition of bacterial growth incubated for 24 hrs by broth dilution method; type: functional
Staphylococcus aureus [27] = experiment: Synergistic antibacterial activity against Methicillin-resistant Staphylococcus aureus USA300 assessed as amoxicillin MIC incubated for 24 hrs by checkboard method (reference value: 8 microg/ml); type: functional
Staphylococcus aureus [28] = experiment: Inhibition of staphyloxanthin biosynthesis in Methicillin-resistant Staphylococcus aureus ATCC 3392 assessed as reduction in 4,4-Diapophytoene formation at 0.125 to 0.625 times MIC by nanodrop spectrophotometer analysis; type: functional, organism-based
Staphylococcus aureus [29] = experiment: Additive antibacterial activity against Methicillin-resistant Staphylococcus aureus USA300 assessed as doxycycline MIC incubated for 24 hrs by checkboard method(reference value: 0.125 microg/ml); type: functional
Cell membrane [30] = experiment: Induction of inner membrane permeabilization in Staphylococcus aureus USA300 assessed as increase in fluorescence intensity incubated for 90 mins by SYTOX staining based analysis; type: cell membranes
Staphylococcus aureus [31] = experiment: Bactericidal activity against methicillin-resistant Staphylococcus aureus ATCC 3392 assessed as inhibition of bacterial growth incubated for 24 hrs by broth dilution method; type: functional
Cell membrane [32] = experiment: Induction of cell membrane damage in Staphylococcus aureus USA300 assessed as intracellular ATP leakage at 1 to 8 times MIC by confocal laser scanning microscopic analysis; type: cell membranes
[33] = Cytotoxicity against human L02 cells assessed as survival rate incubated for 24 hrs by MTT assay; type: toxicity, cell-based; set-up: concentration or dose not given beside the values; details: read-out: Survival
Staphylococcus aureus [34] = experiment: Induction of morphological changes in Staphylococcus aureus USA300 assessed as appearance of wrinkled cell surface at 2 to 4 times MIC by SEM analysis; type: functional, organism-based
Klebsiella pneumoniae = experiment: Antibacterial activity against Klebsiella pneumoniae […] assessed as inhibition of bacterial growth incubated for 24 hrs by broth dilution method; type: functional
Cell membrane [35] = experiment: Induction of inner membrane permeabilization in Staphylococcus aureus USA300 assessed as increase in fluorescence intensity at 1 times MIC incubated for 90 mins by SYTOX staining based analysis
Staphylococcus aureus [36] = experiment: Inhibition of staphyloxanthin biosynthesis in Methicillin-resistant Staphylococcus aureus ATCC 3392 assessed as reduction in Staphyloxanthin formation at 0.125 to 0.625 times MIC by nanodrop spectrophotometer analysis; type: functional, organism-based
[37] = Cytotoxicity against mouse RAW264.7 cells assessed as survival rate incubated for 24 hrs by MTT assay; type: toxicity, cell-based; set-up: concentration or dose not given beside the values; details: read-out: Survival
Staphylococcus aureus [38] = experiment: Antibiofilm activity against Methicillin-resistant Staphylococcus aureus USA300 assessed as inhibition of biofilm formation at 0.25 times MIC by crystal violet staining based assay; type: functional; set-up: scale not given: the % may be the effect or the level left
Staphylococcus aureus [39] = experiment: Synergistic antibacterial activity against Methicillin-resistant Staphylococcus aureus USA300 infected in mouse skin infection model assessed as reduction in number of bacteria at 10 mg/kg, sc in presence of oxacillin administered every 12 hrs for 3 days; type: functional; details: time 3 day
Staphylococcus aureus [40] = experiment: Inhibition of staphyloxanthin biosynthesis in Methicillin-resistant Staphylococcus aureus ATCC 3392 assessed as reduction in 4,4-diaponeurosporenic acid formation at 0.125 to 0.625 times MIC by nanodrop spectrophotometer analysis; type: functional, organism-based
Pseudomonas aeruginosa = experiment: Antibacterial activity against Pseudomonas aeruginosa […] assessed as inhibition of bacterial growth incubated for 24 hrs by broth dilution method; type: functional

## CCCCCCC(=O)c1c(O)cc(O)c(C(=O)CCCCCC)c1O
Cell membrane [1]
  Activity: Active
Staphylococcus aureus [2]
  fractional inhibitory concentration index (FICI): 0.312
Staphylococcus aureus [3]
  Activity: 37%
Staphylococcus aureus [4]
  Activity: Active
Staphylococcus aureus [5]
  Activity: ~50%
Cell membrane [6]
  Activity: Active
Staphylococcus aureus [7]
  MBC: 1 µg/mL (≈ 2.85 µM)
Staphylococcus aureus [8]
  Selectivity Index: 1
Staphylococcus aureus [9]
  fractional inhibitory concentration index (FICI): 0.375
Staphylococcus aureus [10]
  fractional inhibitory concentration index (FICI): 0.75
Cell membrane [11]
  Activity: inactive
Staphylococcus aureus [12]
  MIC: 0.125 µg/mL
Staphylococcus aureus [13]; time 3 day
  Activity: 1.5 log10CFU/g
Staphylococcus aureus [14]
  fold change (FC): 256
Staphylococcus aureus [15]
  MIC: 0.5 µg/mL (≈ 1.43 µM)
Cell membrane [16]
  Activity: Active
Staphylococcus aureus [17]
  Activity: Dose-Dependent Effect
Staphylococcus aureus [18]
  Activity: Active
Staphylococcus aureus [19]
  Activity: Active
Staphylococcus aureus [20]
  Activity: 95%
Staphylococcus aureus [21]
  MIC: 0.5 µg/mL (≈ 1.43 µM)
[22]
  Activity: Non-Toxic
Staphylococcus aureus [23]
  inhibition: Active
Staphylococcus aureus [24]
  Activity: Active
Staphylococcus aureus [25]
  MIC: 1 µg/mL (≈ 2.85 µM)
Cell membrane [26]
  Activity: 70%
Escherichia coli
  MIC: > 64 µg/mL
Staphylococcus aureus [27]
  MIC: 0.125 µg/mL
Staphylococcus aureus [28]
  inhibition: inactive
Staphylococcus aureus [29]
  MIC: 0.25 µg/mL
Cell membrane [30]
  Activity: Dose-Dependent Effect
Staphylococcus aureus [31]
  MBC: 1 µg/mL (≈ 2.85 µM)
Cell membrane [32]
  Activity: Active
[33]
  viability at 24 h: 75%
Staphylococcus aureus [34]
  Activity: Active
Klebsiella pneumoniae
  MIC: > 64 µg/mL
Cell membrane [35]
  Activity: Active
Staphylococcus aureus [36]
  inhibition: Active
[37]
  viability at 24 h: 76%
Staphylococcus aureus [38]
  Activity: 58%
Staphylococcus aureus [39]
  Activity: 2.5 log10CFU/g
Staphylococcus aureus [40]
  inhibition: Active
Pseudomonas aeruginosa
  MIC: > 64 µg/mL

## CN[C@H](CC(C)C)C(=O)N[C@H]1C(=O)N[C@@H](CC(N)=O)C(=O)N[C@H]2C(=O)N[C@H]3C(=O)N[C@H](C(=O)N[C@H](C(=O)O)c4cc(O)cc(O)c4-c4cc3ccc4O)[C@H](O)c3ccc(c(Cl)c3)Oc3cc2cc(c3O[C@@H]2O[C@H](CO)[C@@H](O)[C@H](O)[C@H]2O[C@H]2C[C@](C)(N)[C@H](O)[C@H](C)O2)Oc2ccc(cc2Cl)[C@H]1O [VANCOMYCIN]
Staphylococcus aureus [13]; time 3.0 day
  Activity: inactive
Escherichia coli
  MIC: > 64 µg/mL
Klebsiella pneumoniae
  MIC: > 64 µg/mL
Pseudomonas aeruginosa
  MIC: > 64 µg/mL
